The values that follow are results of earlier work, collected in US8138336B2, “Pyrrolotriazine derivatives useful for treating cancer through inhibition of aurora kinase” (Bayer HealthCare LLC, priority 2007, dated 2012).

Structures are written as SMILES. Where two headings read alike, the source gives them in different places.

This data set has as its system breast tumors.

For the compound `CC(=O)O[C@@]12CO[C@@H]1C[C@H](O)[C@@]1(C)C(=O)[C@H](O)C3=C(C)[C@@H](OC(=O)[C@H](O)[C@@H](NC(=O)OC(C)(C)C)c4ccccc4)C[C@@](O)([C@@H](OC(=O)c4ccccc4)[C@H]21)C3(C)C` [Docetaxel], the “response rate to Docetaxel treatment” value was 41% (patients with breast tumors with high Aurora-A mRNA levels) and 71% (patients with low Aurora-A mRNA breast tumors).
